Laboratory results published in PubChem BioAssay (NCI).
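Assay format: 96-well plates, 48-hour exposure. At the GI50, growth is halved. TGI denotes the concentration required for complete inhibition of growth.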

What was measured:
Test in all cases: NCI anticancer screen, dose series, 48 h
KM12 colon = tested on: KM12 colon
HOP-62 NSCLC = tested on: HOP-62 NSCLC
SW-620 colon = tested on: SW-620 colon
HCT-15 colon = tested on: HCT-15 colon
786-0 renal = tested on: 786-0 renal
MALME-3M melanoma = tested on: MALME-3M melanoma
HCT-116 colon = tested on: HCT-116 colon
SNB-19 CNS = tested on: SNB-19 CNS
HT29 colon = tested on: HT29 colon

SMILES	TGI (KM12 colon) [µM]	TGI (HOP-62 NSCLC) [µM]	TGI (SW-620 colon) [µM]	TGI (HCT-15 colon) [µM]	TGI (786-0 renal) [µM]	TGI (MALME-3M melanoma) [µM]	TGI (HCT-116 colon) [µM]	TGI (SNB-19 CNS) [µM]	GI50 (KM12 colon) [µM]	GI50 (HOP-62 NSCLC) [µM]	GI50 (SW-620 colon) [µM]	GI50 (HCT-15 colon) [µM]	GI50 (786-0 renal) [µM]	GI50 (MALME-3M melanoma) [µM]	GI50 (HCT-116 colon) [µM]	GI50 (SNB-19 CNS) [µM]	GI50 (HT29 colon) [µM]	TGI (HT29 colon) [µM]
COC1CCCc2c(OC(C)=O)ccc(OC(C)=O)c21 (centres undefined)	> 100	> 100	> 100	> 100	> 100	> 100	> 100	> 100	–	–	–	–	–	–	–	–	–	–
CN(C)CCNC(=O)c1ccc2c(c1)oc1cc3ccccc3c(=O)n12	45.3	30.8	31.7	31.4	33.1	43.7	29.4	48.7	17	16	15.5	12.8	18.2	23.4	16	25.9	18.1	40.4
COc1ccc(-c2cc(=O)c3c(O)c(O)c(OC)cc3o2)cc1O	> 100	> 100	> 100	> 100	> 100	> 100	> 100	> 100	–	–	–	–	–	–	–	–	–	> 100
O=c1[nH]c2nc3ccccc3c(=O)n2nc1Cc1ccccc1	> 100	> 100	> 100	> 100	> 100	> 100	> 100	> 100	–	–	–	–	–	–	–	–	–	> 100
COc1ccccc1/C=C1\C(=O)N(C(=O)Cc2ccccc2)N=C1C	> 100	> 100	> 100	> 100	> 100	> 100	> 100	> 100	–	–	–	–	–	–	–	–	–	> 100
COCN1COCN(C)C1=O	> 100	> 100	> 100	> 100	> 100	> 100	> 100	> 100	–	–	–	–	–	–	–	–	–	> 100
COc1ccc2c(=O)c(-c3cc(OC)c(OC)cc3OC)coc2c1	> 100	> 100	> 100	> 100	> 100	> 100	> 100	> 100	–	–	–	–	–	–	–	–	–	> 38.3
O=C(c1ccccc1)c1nc2c(Cl)ccc(Cl)c2cc1C(Br)Br	2.55	3.11	1.19	2.88	0.983	5.66	1.56	3.11	–	–	–	–	–	–	–	–	–	–
C=CCCC(O)c1cc(C)c(O)c(C)c1 (centres undefined)	> 100	> 100	> 100	> 100	> 100	> 100	–	> 100	–	–	–	–	–	–	–	–	–	–
CC(=O)OC1(Sc2ccccc2)CC2[C@H]3COC(C)(C)O[C@H]3CC[C@@]2(C)CC1=O (some centres undefined)	> 100	–	> 100	> 100	> 100	> 100	> 100	> 100	–	–	–	–	–	–	–	–	–	> 100
CC(=O)/C=C1\CC(=O)N(C)c2ccccc2N1	> 100	> 100	> 100	–	> 100	> 100	> 100	> 100	–	–	–	–	–	–	–	–	–	> 100
N.N.N.N.N#N.N#N.[Cl-].[Os+6]	> 100	–	> 100	> 100	> 100	> 100	> 100	> 100	> 100	–	> 100	> 100	> 100	> 100	> 100	> 100	–	–
CC(C)(C)c1cc(C2c3cc4c(cc3OC(O)(CO)C2C(=O)O)OCO4)cc(C(C)(C)C)c1O (centres undefined) (tested in a mixture with another compound)	–	53.1	33.4	26	33.8	37.3	21.2	25.7	–	–	–	–	–	–	–	–	–	27.2
Cc1nc2ccccc2c(=O)n1/N=C(\N=Nc1ccc(Cl)cc1)c1cccc(-c2ccco2)c1	–	62.6	> 100	> 100	> 100	–	95.5	–	–	–	–	–	–	–	–	–	–	> 100
O=C(CC1(O)C(=O)Nc2ccccc21)c1ccc(Cl)c(Cl)c1 (centres undefined)	–	–	> 100	> 100	> 100	–	> 100	> 100	–	–	–	–	–	–	–	–	–	> 100
COc1ccc2nc3cc(Cl)ccc3c(Sc3ccc(N)cc3)c2c1	19.4	49.8	12.8	20.1	19.8	30.1	17.3	33.4	–	–	–	–	–	–	–	–	–	–
CCN(Cc1ccc(Cl)c(Cl)c1)c1ccc2nc(N)nc(N)c2c1C	1.67	–	1.6	–	1.27	2.6	1.51	1.51	0.048	–	< 0.01	–	< 0.01	1.17	< 0.01	0.0141	< 0.01	1.27
Cc1c(C)c2cc3c(=O)c(CCl)coc3c(C)c2oc1=O	> 100	> 100	> 100	> 100	> 100	> 100	> 100	> 100	–	–	–	–	–	–	–	–	–	–
O=C1NC(c2ccccc2)(c2ccccc2)C(=O)N1CCCCCCN1C(=O)NC(c2ccccc2)(c2ccccc2)C1=O	> 100	> 100	> 100	> 100	49.3	85.2	–	72.1	–	–	–	–	–	–	–	–	–	> 100
